# Results published in patent US20250339409A1, “USES OF PAN BET INHIBITORS” (VYNE THERAPEUTICS INC., priority 2021, published 2025).
# System: imiquimod-induced psoriasis
# Test: Imiquimod-induced psoriasis (Th17 inflammation) model in mice, topical treatment once daily D7-D13: PASI, modified PASI, body weight, use of enrichment, TEWL
# Type: in vivo
# Parameters: key to Mean score use enrichment: 0 = no use of dental rolls to 4 = use of all 4; key to PASI Mean score values: sum of erythema, induration, peeling scores, each 0-3 (0 = none)
# Conditions: imiquimod-induced mice
# Experimental: Thirty-six (36) female Balb/c mice are weighed and randomly divided into 9 groups (n=4) according to body weight on D1. For mice of native group 1 and tolerance groups 8 and 9, no induction of psoriasis is performed between D1 and D13. Psoriasis is induced in groups 2 to 7 by once daily topical application for 13 days (from day 1 to day 13) of 65 mg of Aldara™ cream (5.0% imiquimod) onto the shaved and epilated back of mice. Before the first treatment, a second randomization of mice of the 6 imiquimod-induced psoriasis groups is performed according to the severity of psoriasis (PASI), and also the body weight of mice. Starting on day 7 and until day 13, 100 mg of test formulations […] and 65 mg of vehicle (groups 1 and […]) are topically administered once daily for 7 consecutive days onto the shaved back skin of mice. Several measurements are taken during treatment period from day 7 to day 14: psoriasis index (PASI), body weight, use of enrichment and mortality. At the end of treatment period, TEWL is assessed, and blood and skin samples are collected. Histological analysis of skin samples is used for microscopic scoring of psoriasis and the determination of the thickness of parakeratosis and epidermis and blood analysis is used for assessing the level of proinflammatory biomarkers (cytokines assays). The effect of treatment of psoriasis induced mice with BETi formulations at the four dose levels are compared with Dermoval® cream containing 0.05% clobetasol propionate (reference) and vehicle (positive control) and also with healthy mice treated with vehicle (negative control).
# PASI scoring takes into account the following 3 parameters: the presence of erythema on the skin, induration of the skin (thickening) and peeling of the skin at the area of the induction of psoriasis.
# The presence of erythema on the skin at the area of induction of psoriasis with the following scoring grid: • 0=no or no more erythema on the skin, • 1=weak erythema on the skin, • 2=moderate erythema on the skin, • 3=important erythema on the skin.
# The presence of induration of the skin at the area of induction of psoriasis with the following scoring grid: • 0=no or no more induration of the skin, • 1=weak induration of the skin, • 2=moderate induration of the skin, • 3=important induration of the skin.
# The presence of peeling of the skin at the area of induction of psoriasis with the following scoring grid: • 0=no or no more dryness/peeling of the skin, • 1=weak dryness/peeling of the skin, • 2=moderate dryness/peeling of the skin, • 3=important dryness/peeling of the skin.
# The sum of the mean scores of these 3 parameters result in the mean PASI score.
# One of the issues with a steroid is that it causes skin thinning and continues to have an effect on no longer inflamed skin and the model set up and measurements above are not designed to reflect this negative effect. Therefore, a modified PASI (mPASI) is calculated in the same the manner as mean PASI score but excludes the scoring for induration (thickening of the skin).
# Mice are weighed three times during the week of D1 to D7, and then daily during the week of D7 to D13, as well as on the day D14 when they are sacrificed. It should be noted that a characteristic body weight loss of mice is observed after the start of the induction of psoriasis, mainly during the first days following it. The body weight loss can reach between 10 to 15%.
# For the duration of the experiment, dental rolls are used as enrichment and placed in each cage and replaced twice. Between D1 and D7, the number of dental rolls used by animals are determined twice in the morning, and are determined daily during D7 to D14, at the time of PASI or the tolerance assessment. The use of dental rolls is scored from 0=no use of dental rolls to 4=use of the 4 dental rolls. In the case where only half of a dental roll is used, a score of 0.5 is assigned. […]
compound,measurement,setting,value
Cn1cc(-c2cccc(O)c2Oc2ccccc2)c2cc[nH]c2c1=O [BETi1],PASI Mean score values,D 7,8.00
same,Modified PASI Mean score values,"D 7, listed as BETI1 0.01%",5.75
same,Modified PASI Mean score values,"D 7, listed as BETI1 0.1%",5.75
same,Modified PASI Mean score values,"D 7, listed as BETI1 1.0%",5.50
same,Mean score use enrichment,"D 7, listed as BETi 0.001%",4.00
same,Mean score use enrichment,"D 7, listed as BETi 0.01%",3.50
same,Mean score use enrichment,"D 7, listed as BETi 0.1%",3.00
same,Modified PASI Mean score values,"D 7, listed as BETi1 0.001%",5.50
same,Mean score use enrichment,"D 7, listed as BETi 1.0%",2.00
same,Mean score use enrichment,"D 8-D 14, listed as BETi 0.001%",3.17
same,Mean score use enrichment,"D 8-D 14, listed as BETi 0.01%",3.58
same,Mean score use enrichment,"D 8-D 14, listed as BETi 0.1%",3.75
same,Mean score use enrichment,"D 8-D 14, listed as BETi 1.0%",3.58
same,Modified PASI Mean score values,"D 8, listed as BETI1 0.1%",6.00
same,PASI Mean score values,"D 8, listed as BETI1 0.1%",8.50
same,Modified PASI Mean score values,"D 8, listed as BETI1 1.0%",6.25
same,PASI Mean score values,"D 8, listed as BETI1 1.0%",9.00
same,Mean score use enrichment,"D 8, listed as BETi 0.001%",4.00
same,Mean score use enrichment,"D 8, listed as BETi 0.01%",4.00
same,Mean score use enrichment,"D 8, listed as BETi 0.1%",3.25
same,Modified PASI Mean score values,"D 8, listed as BETi1 0.001%",7.00
same,PASI Mean score values,"D 8, listed as BETi1 0.001%",10.00
same,Modified PASI Mean score values,"D 8, listed as BETi1 0.01%",5.50
same,PASI Mean score values,"D 8, listed as BETi1 0.01%",8.25
same,Mean score use enrichment,"D 8, listed as BETi 1.0%",2.25
same,Modified PASI Mean score values,"D 9, listed as BETI1 0.1%",4.50
same,PASI Mean score values,"D 9, listed as BETI1 0.1%",7.25
same,Modified PASI Mean score values,"D 9, listed as BETI1 1.0%",5.75
same,PASI Mean score values,"D 9, listed as BETI1 1.0%",8.50
same,Mean score use enrichment,"D 9, listed as BETi 0.001%",1.00
same,Mean score use enrichment,"D 9, listed as BETi 0.01%",2.25
same,Mean score use enrichment,"D 9, listed as BETi 0.1%",2.75
same,Modified PASI Mean score values,"D 9, listed as BETi1 0.001%",6.25
same,PASI Mean score values,"D 9, listed as BETi1 0.001%",9.25
same,Modified PASI Mean score values,"D 9, listed as BETi1 0.01%",4.00
same,PASI Mean score values,"D 9, listed as BETi1 0.01%",6.75
same,Mean score use enrichment,"D 9, listed as BETi 1.0%",2.00
same,Modified PASI Mean score values,"D 10, listed as BETI1 0.1%",2.75
same,PASI Mean score values,"D 10, listed as BETI1 0.1%",4.50
same,Modified PASI Mean score values,"D 10, listed as BETI1 1.0%",4.75
same,PASI Mean score values,"D 10, listed as BETI1 1.0%",7.25
same,Mean score use enrichment,"D 10, listed as BETi 0.001%",2.25
same,Mean score use enrichment,"D 10, listed as BETi 0.01%",3.25
same,Mean score use enrichment,"D 10, listed as BETi 0.1%",3.75
same,Modified PASI Mean score values,"D 10, listed as BETi1 0.001%",5.50
same,PASI Mean score values,"D 10, listed as BETi1 0.001%",8.50
same,Modified PASI Mean score values,"D 10, listed as BETi1 0.01%",3.50
same,PASI Mean score values,"D 10, listed as BETi1 0.01%",6.00
same,Mean score use enrichment,"D 10, listed as BETi 1.0%",3.00
same,Modified PASI Mean score values,"D 11, listed as BETI1 0.1%",1.25
same,PASI Mean score values,"D 11, listed as BETI1 0.1%",2.75
same,Modified PASI Mean score values,"D 11, listed as BETI1 1.0%",3.50
same,PASI Mean score values,"D 11, listed as BETI1 1.0%",5.50
same,Mean score use enrichment,"D 11, listed as BETi 0.001%",3.75
same,Mean score use enrichment,"D 11, listed as BETi 0.01%",4.00
same,Mean score use enrichment,"D 11, listed as BETi 0.1%",4.00
same,Modified PASI Mean score values,"D 11, listed as BETi1 0.001%",5.50
same,PASI Mean score values,"D 11, listed as BETi1 0.001%",8.00
same,Mean body weights,"D 11, listed as BETi1 0.01%",17.93
same,Modified PASI Mean score values,"D 11, listed as BETi1 0.01%",2.75
same,PASI Mean score values,"D 11, listed as BETi1 0.01%",5.00
same,Mean score use enrichment,"D 11, listed as BETi 1.0%",3.50
same,Modified PASI Mean score values,"D 12, listed as BETI1 0.1%",0.50
same,PASI Mean score values,"D 12, listed as BETI1 0.1%",1.00
same,Modified PASI Mean score values,"D 12, listed as BETI1 1.0%",4.25
same,PASI Mean score values,"D 12, listed as BETI1 1.0%",7.25
same,Mean score use enrichment,"D 12, listed as BETi 0.001%",4.00
same,Mean score use enrichment,"D 12, listed as BETi 0.01%",4.00
same,Mean score use enrichment,"D 12, listed as BETi 0.1%",4.00
same,Modified PASI Mean score values,"D 12, listed as BETi1 0.001%",4.50
same,PASI Mean score values,"D 12, listed as BETi1 0.001%",6.00
same,Modified PASI Mean score values,"D 12, listed as BETi1 0.01%",1.00
same,PASI Mean score values,"D 12, listed as BETi1 0.01%",2.25
same,Mean score use enrichment,"D 12, listed as BETi 1.0%",2.25
same,Modified PASI Mean score values,"D 13, listed as BETI1 0.1%",0.50
same,PASI Mean score values,"D 13, listed as BETI1 0.1%",1.00
same,Modified PASI Mean score values,"D 13, listed as BETI1 1.0%",3.25
same,PASI Mean score values,"D 13, listed as BETI1 1.0%",5.25
same,Mean score use enrichment,"D 13, listed as BETi 0.001%",4.00
same,Mean score use enrichment,"D 13, listed as BETi 0.01%",4.00
same,Mean score use enrichment,"D 13, listed as BETi 0.1%",4.00
same,Modified PASI Mean score values,"D 13, listed as BETi1 0.001%",4.00
same,PASI Mean score values,"D 13, listed as BETi1 0.001%",5.50
same,Modified PASI Mean score values,"D 13, listed as BETi1 0.01%",1.75
same,PASI Mean score values,"D 13, listed as BETi1 0.01%",2.75
same,Mean score use enrichment,"D 13, listed as BETi 1.0%",2.75
same,Mean score use enrichment,D 14,4.00
same,Mean TEWL score values,"D14, Lower back, listed as BETi1 1.0%",30.63 g/h/m2
same,Mean TEWL score values,"D14, Lower back, listed as BETi10.001%",42.11 g/h/m2
same,Mean TEWL score values,"D14, Lower back, listed as BETi10.01%",57.25 g/h/m2
same,Mean TEWL score values,"D14, Lower back, listed as BETi10.1%",39.27 g/h/m2
same,Mean TEWL score values,"D14, Mean, listed as BETi1 1.0%",38.60 g/h/m2
same,Mean TEWL score values,"D14, Mean, listed as BETi10.001%",40.35 g/h/m2
same,Mean TEWL score values,"D14, Mean, listed as BETi10.01%",39.55 g/h/m2
same,Mean TEWL score values,"D14, Mean, listed as BETi10.1%",27.14 g/h/m2
same,Mean TEWL score values,"D14, Mid back, listed as BETi1 1.0%",40.80 g/h/m2
same,Mean TEWL score values,"D14, Mid back, listed as BETi10.001%",41.26 g/h/m2
same,Mean TEWL score values,"D14, Mid back, listed as BETi10.01%",34.53 g/h/m2
same,Mean TEWL score values,"D14, Mid back, listed as BETi10.1%",24.04 g/h/m2
same,Mean TEWL score values,"D14, Upper back, listed as BETi1 1.0%",44.36 g/h/m2
same,Mean TEWL score values,"D14, Upper back, listed as BETi10.001%",37.67 g/h/m2
same,Mean TEWL score values,"D14, Upper back, listed as BETi10.01%",26.87 g/h/m2
same,Mean TEWL score values,"D14, Upper back, listed as BETi10.1%",18.11 g/h/m2
same,Modified PASI Mean score values,"D 14, listed as BETI1 0.1%",0.50
same,PASI Mean score values,"D 14, listed as BETI1 0.1%",1.25
same,Modified PASI Mean score values,"D 14, listed as BETI1 1.0%",3.50
same,PASI Mean score values,"D 14, listed as BETI1 1.0%",5.00
same,Modified PASI Mean score values,"D 14, listed as BETi1 0.001%",3.75
same,PASI Mean score values,"D 14, listed as BETi1 0.001%",5.50
same,Modified PASI Mean score values,"D 14, listed as BETi1 0.01%",1.50
same,PASI Mean score values,"D 14, listed as BETi1 0.01%",2.25
same,clinical signs,end of treatment,substantial resolution of clinical signs
same,dermal tolerance,topical 7 days,no evidence of dermal tolerance issues
same,reduction in mPASI score (composite inflammation severity score) relative to vehicle control group,treatment Day 7,94%
same,"Absolute Body Weight Change from day 1 to day 14, D14 − D1, individual mouse",listed as BETi1 -0.001%,1.58
